Measurements: the NIST ThermoML archive (doi:10.1021/je034162x)
± gives the expanded uncertainty stated by the source.

Details: 101.33 kPa, Liquid, Hot wire method

[2H]c1c([2H])c([2H])c([2H])c([2H])c1[2H] [benzene-d6]
Details	thermal conductivity [W/m/K]	thermal diffusivity [m2/s]
280.76 K	0.1398 ± 0.00087	–
281.06 K	0.1397 ± 0.00087	–
281.26 K	0.1396 ± 0.00087	–
282.09 K	–	8.1e-08 ± 1.5e-09
282.98 K	–	8.15e-08 ± 1.5e-09
283.58 K	–	8.12e-08 ± 1.5e-09
291.53 K	0.1364 ± 0.00085	–
291.83 K	0.1363 ± 0.00085	–
292.04 K	0.1362 ± 0.00085	–
292.92 K	–	7.93e-08 ± 1.5e-09
293.83 K	–	7.96e-08 ± 1.5e-09
294.46 K	–	7.95e-08 ± 1.5e-09
304.05 K	0.1323 ± 0.00083	–
304.37 K	0.1322 ± 0.00083	–
304.59 K	0.1321 ± 0.00083	–
305.49 K	–	7.7e-08 ± 1.4e-09
306.42 K	–	7.69e-08 ± 1.4e-09
307.08 K	–	7.69e-08 ± 1.4e-09
316.34 K	0.1284 ± 0.00081	–
316.66 K	0.1283 ± 0.00081	–
316.89 K	0.1282 ± 0.00081	–
317.82 K	–	7.46e-08 ± 1.4e-09
318.77 K	–	7.45e-08 ± 1.4e-09
319.44 K	–	7.44e-08 ± 1.4e-09
326.75 K	0.1252 ± 0.00079	–
327.08 K	0.125 ± 0.00079	–
327.31 K	0.1249 ± 0.00079	–
328.26 K	–	7.25e-08 ± 1.4e-09
329.22 K	–	7.23e-08 ± 1.4e-09
329.88 K	–	7.2e-08 ± 1.3e-09

C1CCCCCCC1 [cyclooctane]
Details	thermal conductivity [W/m/K]	thermal diffusivity [m2/s]
288.7 K	0.1205 ± 0.00097	–
288.96 K	0.1203 ± 0.00096	–
289.17 K	0.1202 ± 0.00096	–
289.34 K	–	7.48e-08 ± 1.4e-09
289.97 K	–	7.48e-08 ± 1.4e-09
290.48 K	–	7.48e-08 ± 1.4e-09
295.85 K	0.1191 ± 0.00096	–
295.88 K	0.1191 ± 0.00096	–
296.09 K	0.1189 ± 0.00096	–
296.21 K	0.1188 ± 0.00095	–
296.43 K	–	7.39e-08 ± 1.5e-09
296.51 K	–	7.35e-08 ± 1.5e-09
297.02 K	–	7.36e-08 ± 1.4e-09
297.3 K	–	7.36e-08 ± 1.4e-09
311.67 K	0.1156 ± 0.00093	–
311.88 K	0.1154 ± 0.00093	–
312.1 K	0.1154 ± 0.00093	–
312.37 K	–	7.05e-08 ± 1.4e-09
312.87 K	–	7.03e-08 ± 1.4e-09
313.4 K	–	7.04e-08 ± 1.4e-09
328.99 K	0.1119 ± 0.0009	–
329.22 K	0.1118 ± 0.0009	–
329.43 K	0.1117 ± 0.0009	–
329.7 K	–	6.75e-08 ± 1.3e-09
330.22 K	–	6.75e-08 ± 1.3e-09
330.71 K	–	6.72e-08 ± 1.3e-09

C1CCCCC1 [cyclohexane]
Details	thermal conductivity [W/m/K]	thermal diffusivity [m2/s]
280.83 K	0.1232 ± 0.00077	–
281 K	0.1231 ± 0.00077	–
281.15 K	0.123 ± 0.00077	–
281.38 K	–	8.75e-08 ± 1.6e-09
281.78 K	–	8.73e-08 ± 1.6e-09
282.12 K	–	8.75e-08 ± 1.6e-09
295.53 K	0.119 ± 0.00075	–
295.7 K	0.1189 ± 0.00075	–
295.83 K	0.1187 ± 0.00075	–
296.05 K	–	8.25e-08 ± 1.5e-09
296.45 K	–	8.28e-08 ± 1.5e-09
296.76 K	–	8.24e-08 ± 1.5e-09
300.84 K	0.1175 ± 0.00075	–
301 K	0.1173 ± 0.00074	–
301.14 K	0.1172 ± 0.00074	–
301.35 K	–	8.09e-08 ± 1.5e-09
301.73 K	–	8.06e-08 ± 1.5e-09
302.06 K	–	8.09e-08 ± 1.5e-09
318.66 K	0.1124 ± 0.00072	–
318.82 K	0.1123 ± 0.00072	–
318.95 K	0.1121 ± 0.00071	–
319.16 K	–	7.6e-08 ± 1.4e-09
319.54 K	–	7.59e-08 ± 1.4e-09
319.84 K	–	7.56e-08 ± 1.4e-09
